# Results taken from patent publication US20220378780A1, “PHARMACEUTICAL COMPOSITIONS COMPRISING POH DERIVATIVES” (NeOnc Technologies, Inc., priority 2019, published 2022).
# Tests used:
# [1] = system: U87, A172 and U251 human glioma cells; assay: MTT cytotoxicity assay on human malignant glioma cells; type: cell-based
# Excerpt: In vitro efficacy of the present composition can be determined using methods well known in the art. For example, the cytotoxicity of the present monoterpene (or sesquiterpene) and/or the therapeutic agents may be studied by MTT [3-(4,5-dimethylthiazol-2-yl)-2,5-diphenyl tetrazolium bromide] cytotoxicity assay. MTT assay is based on the principle of uptake of MTT, a tetrazolium salt, by metabolically active cells where it is metabolized into a blue colored formazon product, which can be read spectrometrically. J. of Immunological Methods 65: 55 63, 1983. The cytotoxicity of the present monoterpene (or sesquiterpene) derivative and/or the therapeutic agents may be studied by colony formation assay. Functional assays for inhibition of VEGF secretion and IL-8 secretion may be performed via ELISA. Cell cycle block by the present monoterpene (or sesquiterpene) derivative and/or the therapeutic agents may be studied by standard propidium iodide (PI) staining and flow cytometry. Invasion inhibition may be studied by Boyden chambers. In this assay a layer of reconstituted basement membrane, Matrigel, is coated onto chemotaxis filters and acts as a barrier to the migration of cells in the Boyden chambers. Only cells with invasive capacity can cross the Matrigel barrier. Other assays include, but are not limited to cell viability assays, apoptosis assays, and morphological assays.
# Then U87, A172 and U251 cells were treated with dimethyl celecoxib bisPOH carbamate (POH-DMC) (e.g., synthesized by the method in Example 1), and the MTT cytotoxicity assays performed (FIG. 2).
# Then TMZ-resistant glioma cell lines U87, A172 and U251 cells were treated with temozolomide POH carbamate (POH-TMZ) (e.g., synthesized by the method in Example 3).
# [2] = system: TMZ sensitive (U251) cells; assay: Colony forming assay, TMZ sensitive U251; type: cell-based, human
# Method: (§1) Colony forming assays were carried out after cells were treated with TMZ alone, POH alone, and the TMZ-POH conjugate. […] Cancer Lett. 2011 Mar. 28; 302(2):100-8.
# [3] = system: TMZ resistant (U251TR) U251 cells; assay: Colony forming assay, TMZ resistant U251TR; type: cell-based, human
# Method: as §1
# [4] = system: USC-04 glioma cancer stem cells; assay: MTT cytotoxicity assay, USC-04; type: cell-based; conditions: USC-04; TMZ 0-400 uM, POH 0-2 mM
# Excerpt: (§2) Cancer Lett. 2011 Mar. 28; 302(2):100-8.
# [5] = system: USC-02 glioma cancer stem cells; assay: MTT cytotoxicity assay, USC-02; type: cell-based; conditions: USC-02; TMZ 0-400 uM, POH 0-2 mM
# Excerpt: as §2
# [6] = system: HuT 78 cells; assay: MTT assay on HuT 78 cells (Example 14); conditions: HuT 78, 72 hours
# Method: HuT 78 cells are cutaneous T lymphocytes derived from a patient with Sézary syndrome.
# HuT 78 cells were treated in vitro with (i) temozolomide (50, 100, 250 μM), (ii) POH-TMZ conjugate (“NEO212”, 25, 50, 100 μM), (iii) NEO412 which is the triple conjugate of temozolomide (TMZ), perillyl alcohol (POH), and linoleic acid (25, 50, 100, 250 μM), or (iv) vehicle alone. Seventy-two hours after the addition of drugs or vehicle, cell viability was determined by standard MTT (methylthiazoletetrazolium) assay.
# [7] = system: HUT102 cells; assay: MTT cell viability assay, HUT102 (Example 15); type: cell-based, human; conditions: HUT102, 72 hours
# Excerpt: (§3) 2. Material and methods 2.1. […] 2.2. […] 2.3. […] 2.4. […] 2.5.
# [8] = system: MyLa cells; assay: MTT cell viability assay, MyLa (Example 15); type: cell-based, human; conditions: Homo sapiens, 72 hours
# Excerpt: as §3
# [9] = system: HUT78 cells; assay: FACS analysis of cell death with 7-AAD; type: cell-based, human; conditions: HUT78, highest concentration 300, 72 hours
# Excerpt: as §3
# [10] = cancer patients; cited from earlier work
# [11] = system: HUT78 cells; assay: MTT cell viability assay, HUT78 (Example 15)
# Method: Pharmacological agents—NEO212 was dissolved in DMSO at 100 mM. TMZ was purchased from Sigma Aldrich (St. Louis, Mo.) and dissolved in DMSO (Santa Cruz Biotechnology, Dallas, Tex.) to a concentration of 50 mM. POH was purchased from Sigma-Aldrich and diluted in DMSO to 100 mM. […] Stock solutions of all drugs were stored at −20° C. Staurosporine (STSP) was purchased from Selleck Chemicals (Houston, Tex.), stored at 4° C. protected from light, and dissolved in DMSO before use. Ascorbic acid (AA) and beta-mercaptoethanol (b-ME) (Sigma Aldrich) were prepared fresh before use. Crystalline AA was dissolved in phosphate-buffered saline (PBS) to 25 mM; b-ME was diluted in medium to 25 mM. […] Cell lines—Three different human CTLC cell lines were used. […] Both media also contained 100 U/mL penicillin and 0.1 mg/mL streptomycin. Penicillin, streptomycin, and RPMI (prepared with raw materials from Cellgro/MediaTech, Manassas, Va.) were provided by the Cell Culture Core lab of the USC/Norris Comprehensive Cancer Center. […] Cells were kept in a humidified incubator at 37° C. and a 5% CO2 atmosphere. FBS was obtained from Omega Scientific (Tarzana, Calif.) and from X&Y Cell Culture (Kansas City, Mo.). […] MTT assay—Methylthiazoletetrazolium (MTT) assays were performed as follows. Cells were seeded into 96-well plates in a volume of 50 μL per well at 3.0-5.0×10^5 cells/mL. An additional 50 μL of medium containing various concentrations of drug (or vehicle) was added and the cells were incubated for different lengths of time. This was followed by the addition of 10 μL thiazolyl-blue tetrazolium (i.e., MTT; Sigma Aldrich) from a stock solution of 5 mg/mL in phosphate-buffered saline (PBS). Cells were returned to the incubator for 4 hours. Thereafter, the reaction was stopped and the cells were lysed by the addition of 100 μL solubilization solution (10% sodium dodecyl sulfate in 0.01 M hydrochloric acid). The 96-well plate was left in the cell culture incubator over night for complete solubilization of the MTT crystals, and the optical density (OD) of each well was determined the next day in an ELISA plate reader at 560 nm. The background value (=OD of control wells containing medium without cells+MTT+solubilization solution) was subtracted from all measured values. In individual experiments, each treatment condition was set up in quadruplicate, and each experiment was repeated several times independently. […] Cell proliferation analysis—Cell proliferation was assessed by counting cells over time. Independent cell cultures were exposed to different concentrations of NEO212. At different times, aliquots of cells were removed, mixed with Trypan blue, and counted in a hemocytometer. Blue cells were considered dead, whereas unstained cells were counted as live cells. […] Fluorescence-activated cell sorting (FACS) analysis—Cells were seeded in 6-well tissue culture plates at 2×10^5 cells/mL, followed by drug treatment. After 72 hours, cells were collected, washed twice with PBS, transferred to a microcentrifuge tube, and suspended in 200 μL of 1× binding buffer solution, which was made fresh from 10x binding buffer (0.2 μm sterile-filtered 0.1 M HEPES, pH 7.4; 1.4 M NaCl; 25 mM CaCl2)). Then 1 μL of a 1 mg/mL 7-amino-actinomycin D (7-AAD) solution (Thermo Fisher Scientific, Waltham, Mass.) was added. After 20 minutes of incubation on ice, cell fluorescence was analyzed on a FACSAria Flow Cytometer (Becton Dickinson Biosciences Ltd., Franklin Lakes, N.J.).
# [12] = system: A172 human glioma cells; assay: MTT assay, rolipram vs POH-Rolipram, A172; type: cell-based; conditions: A-172 cells, 48 hours
# Method: (§4) To compare the cytotoxicity of Rolipram POH Carbamate (POH-Rolipram) (e.g., synthesized by the method in Example 5) with rolipram, a […] inducing differentiation and apoptosis in glioma cells, A172, U87, U251 and LN229 human glioma cells were treated with either POH-Rolipram or rolipram for 48 hours. […] In the presence of POH-rolipram, IC50 is achieved at concentrations as low as 50 uM. […] IC50 is not met at 1000 uM. […] POH-rolipram achieves IC50 at 50 uM, with almost 100% cytoxicity at 100 uM. […] On the other hand, IC50 for POH-rolipram is achieved at 100 uM, with almost 100% cytotoxicity at […].
# [13] = system: U87 human glioma cells; assay: MTT assay, rolipram vs POH-Rolipram, U87; type: cell-based; conditions: U-87 cells, 48 hours
# Method: as §4
# [14] = system: U251 human glioma cells; assay: MTT assay, rolipram vs POH-Rolipram, U251; type: cell-based; conditions: for IC50: 48 hours, MTT
# Method: as §4
# [15] = system: LN229 human glioma cells; assay: MTT assay, rolipram vs POH-Rolipram, LN229; type: cell-based; conditions: for IC50: MTT
# Method: as §4
# [16] = system: c-myc, cyclin D1, activated caspase-3 and cleaved PARP-1 in MyLa cells; assay: Western blot of marker proteins with anti-oxidants or H2O2; type: cell-based, human; conditions: for effect of anti-oxidant on NEO212-induced marker changes: 200 and 500 μM AA or 100 and 300 μM b-ME before 80 μM NEO212, 48 hours
# Excerpt: 2. Material and methods 2.1. […] 2.2. […] 2.3. […] 2.4.
# [17] = system: subcutaneous U-87 gliomas; assay: Nude mouse subcutaneous glioma model, tumor growth inhibition; type: in vivo, nude mice; conditions: local application via Q-tip, 1 cc/application/day, 8 weeks; growth over 60 days
# Method: Inhibition of tumor growth by butyryl-POH was studied in a nude mouse subcutaneous glioma model. Mice were injected with U-87 glioma cells (500,000 cells/injection) and allowed to form a palpable nodule over two weeks. Once palpable nodule was formed, the mice were treated with local application of various compounds as indicated in FIGS. 9A and 9B via a Q-tip (1 cc/application/day) over a period of 8 weeks.
# [18] = system: glioblastoma, breast cancer, or melanoma cell lines; conditions: various in vitro cytotoxicity assays; cited from earlier work
smiles,measurement,setting,value
"Cn1nnc2c(C(N)=O)ncn2c1=O [TMZ, temozolomide, reference compound]",cytotoxicity in MTT assay,[1],minimal cytotoxicity
same,cytotoxicity in colony forming assay,[2],demonstrated cytotoxicity
same,cytotoxicity in colony forming assay,[3],minimal cytotoxicity
same,cytotoxicity in MTT assay,[4],did not induce significant cytotoxicity
same,cytotoxicity in MTT assay,[5],did not induce significant cytotoxicity
same,cytotoxic effect on MF cells in MTT assay,[6],does not show much cytotoxicity
same,IC50,"[7]; Homo sapiens, HuT-102",6 to 8 µM
same,IC50,[8],> 300 µM
same,cell death,[9],26%
same,peak plasma levels,[10],50 to 70 µM
same,reduction of viability,"[11]; HUT78, 100 μM",about 30%
same,IC50,"[11]; HUT78, 72 hours",> 300 µM
"COc1ccc(C2CNC(=O)C2)cc1OC1CCCC1 (stereo not shown) [rolipram, reference compound]",IC50,[12]; Homo sapiens,~1000 µM
same,IC50,"[13]; Homo sapiens, U-87 MG",> 1000 µM
same,IC50,"[14]; Homo sapiens, U-251, U251 cells",170 µM
same,plateau cytotoxicity,"[14]; human, 48 h",60%
same,IC50,"[15]; Homo sapiens, LN-229, 48 hours",> 100 µM
"OCCS [b-ME, beta-mercaptoethanol]",effect of anti-oxidant on NEO212-induced marker changes,[16],prevented the anticancer impact of NEO212
C=C(C)C1CC=C(COC(=O)N(C(=O)OCC2=CCC(C(=C)C)CC2)S(=O)(=O)c2ccc(-n3nc(C(F)(F)F)cc3-c3cc(C)ccc3C)cc2)CC1 (stereo not shown) [POH-DMC],cytotoxicity in MTT assay,[1],much better cytotoxicity than DMC alone
C=C(C)C1CC=C(COC(=O)CCC)CC1 (stereo not shown) [Butyryl-POH],inhibition of tumor growth,[17],greatest inhibition of tumor growth
"C=C(C)C1CC=C(COC(=O)N2CC(c3ccc(OC)c(OC4CCCC4)c3)CC2=O)CC1 (stereo not shown) [POH-rolipram, 4-(3-cyclopentyloxy-4-methoxyphenyl)-2-oxo-pyrrolidine-1-carboxylic acid 4-isopropenyl cyclohex-1-enylmethyl ester]",IC50,[12],50 µM
same,IC50,[13],180 µM
same,IC50,[14]; U251 cells,50 µM
same,cytotoxicity,"[14]; U251 cells, at 100 uM",~100%
same,IC50,[15]; 48 hours,100 µM
same,cytotoxicity,[15]; at 10 uM,~100%
"OO [H2O2, hydrogen peroxide]",effect on proliferation and apoptosis markers,"[16]; 200 μM H2O2, 48 hours","clear down-regulation of c-myc and cyclin D1 proteins, along with strong activation of caspase-3 and cleavage of PARP-1"
"O=C1O[C@H]([C@@H](O)CO)C(O)=C1O [AA, ascorbic acid]",effect of anti-oxidant on NEO212-induced marker changes,[16],prevented the anticancer impact of NEO212
"C=C(C)[C@@H]1CC=C(CO)CC1 [POH, perillyl alcohol, reference compound]",cytotoxicity in colony forming assay,[2],demonstrated cytotoxicity
same,cytotoxicity in colony forming assay,[3],demonstrated cytotoxicity
same,cytotoxicity in MTT assay,[4],demonstrated cytotoxicity
same,cytotoxicity in MTT assay,[5],demonstrated cytotoxicity
same,activity on viability in MTT assay,[7]; up to 300 μM,very minimal activity
same,IC50,[18],0.7 to 1.8 mM
